Among the data in ChEMBL document CHEMBL1201862, “PubChem BioAssay data set” (2004) are AC50, IC50 and EC50 values, retold here.

Test [1] addresses Endoplasmic reticulum aminopeptidase 1 (Homo sapiens, UniProt Q9NZ08). Description: ERAP1 aminopeptidase inhibitors, dose response, biochemical, cherry-pick, set 2, plate reader (AID 743314).
The target in test [2] is T1, Microphthalmia-associated transcription factor (Homo sapiens, UniProt O75030).
T1 sequence (O75030 whole entry): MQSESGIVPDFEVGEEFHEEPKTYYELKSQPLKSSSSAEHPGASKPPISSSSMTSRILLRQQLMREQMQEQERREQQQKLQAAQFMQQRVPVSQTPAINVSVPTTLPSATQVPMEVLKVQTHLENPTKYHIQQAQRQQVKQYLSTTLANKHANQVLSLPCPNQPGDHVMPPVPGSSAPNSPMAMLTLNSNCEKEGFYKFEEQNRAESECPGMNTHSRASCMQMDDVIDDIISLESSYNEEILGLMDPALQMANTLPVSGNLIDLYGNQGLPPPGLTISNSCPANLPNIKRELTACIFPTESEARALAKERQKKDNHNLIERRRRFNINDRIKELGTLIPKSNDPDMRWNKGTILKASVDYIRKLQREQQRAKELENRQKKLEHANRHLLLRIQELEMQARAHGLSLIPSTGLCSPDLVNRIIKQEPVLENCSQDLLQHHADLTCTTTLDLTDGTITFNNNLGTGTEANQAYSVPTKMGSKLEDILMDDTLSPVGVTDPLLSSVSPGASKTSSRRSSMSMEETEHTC
Description: TRPM1 promoter luciferase signal decrease, dose response, MITF inhibitor project, cell-based, SK-MEL-5, cherry-picked, set 3 (AID 493073).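 Further: SK-MEL-5 melanoma cells with luciferase driven by the MITF target TRPM1 promoter.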 The format is functional.

In test [3] the target is Matrix metalloproteinase-14 (Homo sapiens, UniProt P50281). Description: Dose Response confirmation of uHTS hits for a small molecule inhibitors of MT1-MMP activation in a fluorescence assay set 1. The format is functional.
For another test, the target named is Cytochrome P450 3A4 (Homo sapiens, UniProt P08684).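 Further: CYP3A4 tested as one member of a cytochrome P450 panel screen.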
Test [4] can be described thus: cytotoxicity in HeLa cells, dose response, cytotoxicity control, cell-based, 24 h, dry powder, set 2 (AID 651774). It counts as functional.
The next test addresses Protein Wnt-3a (Mus musculus, UniProt P27467). Description: SAR analysis of small molecule antagonists of Gli-SUFU in a Wnt3a luminescent reporter assay. The format is functional.
Another test concerns the target Mu-type opioid receptor (Homo sapiens, UniProt P35372). It counts as functional, cell-based.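 Further: U2OS cells with beta-arrestin recruitment to OPRM1 by beta-gal complementation.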
The target in test [5] is 5-hydroxytryptamine receptor 2A (Mus musculus, UniProt P35363). The format is functional, cell-based.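 Further: CHO-K1 cells with tagged receptor and beta-arrestin; agonist potency measured as compound-induced activation of the receptor.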
The next test concerns Vero. Description: Vero cell toxicity, dose response, cytotoxicity control, plate reader, cherry-pick samples (AID 687020). The format is functional, cell-based. The note with it: Chlorocebus sabaeus.
Test [6] has as its target Metabotropic glutamate receptor 5 (Rattus norvegicus, UniProt P31424). Description: Identification of a glycine sulfonamide based non-MPEP site positive allosteric potentiator (PAM) of mGlu5 (calcium_assay). It counts as functional.
Test [7] can be described thus: YAP1 pathway inhibition via CTGF transcript levels, dose response, cell-based, DLD1 colon cancer, RT-qPCR, cherry-pick (AID 1053122). It counts as functional. The settings on record: Cancer cell lines.
The nature of test [8]: inhibitors of HIV Env-driven cell fusion, dose response, cherry-pick (AID 652057). It counts as functional, cell-based.
Test [9] in a line: CEM21 lymphoblast cell cytotoxicity, dose response, cytotoxicity control for viral fusion inhibitor project, CellTiter-Glo luminescence, cherry-picked (AID 652042).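 Further: potency for signal decrease meaning cytotoxicity.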 It counts as functional, cell-based.
The nature of test [10]: off-target signal loss in HeLa-CEM21 co-culture – HeLa F-luc CTL cells, cherry-picked, counter-screen for HIV-1 Env fusion inhibitor project, dose response (AID 652040).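 Further: potency for signal decrease marking cytotoxic or nonspecific inhibition.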 The format is functional, cell-based.
Test [11] in a line: ADAM10 inhibitors, peptide cleavage, dose response, biochemical, QFRET (AID 743254).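 Further: ADAM10 enzyme with the DM2 quenched FRET peptide as substrate; EDANS fluorescence gain as the protease cuts the substrate; inhibitor potency against ADAM10 proteolytic activity.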
The target of test [12] is Disintegrin and metalloproteinase domain-containing protein 17 (Homo sapiens, UniProt P78536). Description: ADAM17 protease inhibitors, dose response, counter-screen for ADAM10 exosite inhibitor project, biochemical, quenched FRET substrate (AID 743253).
The nature of test [13]: cytotoxicity in HEK-293T cells, dose response, cytotoxicity control for BCR NF-kB inhibitor project, luminescence, B-cell screen hits (AID 489021).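 Further: HEK-293T cells carrying an NF-kB luciferase reporter; cells exposed to compound for about 14 hours before viability readout.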 The format is functional, cell-based.
Test [14] addresses 26S proteasome non-ATPase regulatory subunit 14 (Homo sapiens, UniProt O00487). Description: inhibition of proteasome subunit RPN11 – biochemical, fluorescence polarization, uHTS hits, confirmation (AID 602368). The format is functional.
Test [15] has as its target 72 kDa type IV collagenase (Homo sapiens, UniProt P08253). Description: Dose Response validation of uHTS RPN11 inhibitor hits using a MMP-2 Fluorescence assay. It counts as functional.
Another test has as its target Prothrombin (Bos taurus, UniProt P00735). Description: thrombin inhibition, dose response, biochemical, fluorescence polarization, uHTS hits (AID 602369). The format is functional.
The next test deals with Albumin (Bos taurus, UniProt P02769). Description: Counterscreen for inhibitors of T-cell receptor (TCR)-CD3 interaction: Fluorescence-based biochemical high throughput dose response assay to identify inhibitors of T-cell receptor (TCR)-CD3 interaction using a TAMRA-labeled BSA probe. The format is functional.
Test [16] has as its target 1-phosphatidylinositol 4,5-bisphosphate phosphodiesterase gamma-1 (Homo sapiens, UniProt P19174). Description: Counterscreen for inhibitors of phospholipase C isozymes (PLC-B3): Fluorescence-based biochemical high throughput dose response assay to identify inhibitors of phospholipase C isozymes (PLC-gamma1).
Test [17] deals with 1-phosphatidylinositol 4,5-bisphosphate phosphodiesterase beta-3 (Homo sapiens, UniProt Q01970). Description: Fluorescence-based biochemical high throughput dose response assay to identify inhibitors of phospholipase C isozymes (PLC-B3).
Test [18] deals with Lysosomal acid glucosylceramidase (Homo sapiens, UniProt P04062). Description: Dose response cell-based high throughput screening assay to identify enhancers of beta-glucosidase activity. [Related pubchem assays: 784 ]. It counts as functional.
Test [19] is described as follows: cells. The settings on record: A549.
Test [20] is described as follows: cells. The settings on record: HEK293.

Molecules are shown by their SMILES. Calls of active or inactive are those of the source.

Sequence of 5-hydroxytryptamine receptor 2A (P35363 whole entry): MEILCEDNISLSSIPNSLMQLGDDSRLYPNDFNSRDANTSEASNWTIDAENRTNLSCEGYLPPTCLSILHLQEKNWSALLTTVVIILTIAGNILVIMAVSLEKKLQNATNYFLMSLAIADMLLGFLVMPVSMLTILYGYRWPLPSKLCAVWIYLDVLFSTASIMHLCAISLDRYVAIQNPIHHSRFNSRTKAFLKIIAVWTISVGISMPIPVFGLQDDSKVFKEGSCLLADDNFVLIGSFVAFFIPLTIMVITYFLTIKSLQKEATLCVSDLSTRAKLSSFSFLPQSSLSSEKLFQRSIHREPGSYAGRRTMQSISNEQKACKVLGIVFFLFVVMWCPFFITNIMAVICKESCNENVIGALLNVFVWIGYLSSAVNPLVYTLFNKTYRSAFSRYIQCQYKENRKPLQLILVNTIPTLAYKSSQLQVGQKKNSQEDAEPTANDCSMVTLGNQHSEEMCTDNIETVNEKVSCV
Sequence of 26S proteasome non-ATPase regulatory subunit 14 (O00487 whole entry): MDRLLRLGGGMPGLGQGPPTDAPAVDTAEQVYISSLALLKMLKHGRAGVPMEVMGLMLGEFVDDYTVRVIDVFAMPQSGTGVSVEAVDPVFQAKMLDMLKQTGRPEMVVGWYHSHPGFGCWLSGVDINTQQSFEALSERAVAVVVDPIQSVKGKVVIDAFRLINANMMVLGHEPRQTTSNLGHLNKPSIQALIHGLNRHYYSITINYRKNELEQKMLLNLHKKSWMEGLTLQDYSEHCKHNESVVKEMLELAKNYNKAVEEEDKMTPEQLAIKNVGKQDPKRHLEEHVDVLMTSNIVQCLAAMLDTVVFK
Sequence of 1-phosphatidylinositol 4,5-bisphosphate phosphodiesterase beta-3 (Q01970 whole entry): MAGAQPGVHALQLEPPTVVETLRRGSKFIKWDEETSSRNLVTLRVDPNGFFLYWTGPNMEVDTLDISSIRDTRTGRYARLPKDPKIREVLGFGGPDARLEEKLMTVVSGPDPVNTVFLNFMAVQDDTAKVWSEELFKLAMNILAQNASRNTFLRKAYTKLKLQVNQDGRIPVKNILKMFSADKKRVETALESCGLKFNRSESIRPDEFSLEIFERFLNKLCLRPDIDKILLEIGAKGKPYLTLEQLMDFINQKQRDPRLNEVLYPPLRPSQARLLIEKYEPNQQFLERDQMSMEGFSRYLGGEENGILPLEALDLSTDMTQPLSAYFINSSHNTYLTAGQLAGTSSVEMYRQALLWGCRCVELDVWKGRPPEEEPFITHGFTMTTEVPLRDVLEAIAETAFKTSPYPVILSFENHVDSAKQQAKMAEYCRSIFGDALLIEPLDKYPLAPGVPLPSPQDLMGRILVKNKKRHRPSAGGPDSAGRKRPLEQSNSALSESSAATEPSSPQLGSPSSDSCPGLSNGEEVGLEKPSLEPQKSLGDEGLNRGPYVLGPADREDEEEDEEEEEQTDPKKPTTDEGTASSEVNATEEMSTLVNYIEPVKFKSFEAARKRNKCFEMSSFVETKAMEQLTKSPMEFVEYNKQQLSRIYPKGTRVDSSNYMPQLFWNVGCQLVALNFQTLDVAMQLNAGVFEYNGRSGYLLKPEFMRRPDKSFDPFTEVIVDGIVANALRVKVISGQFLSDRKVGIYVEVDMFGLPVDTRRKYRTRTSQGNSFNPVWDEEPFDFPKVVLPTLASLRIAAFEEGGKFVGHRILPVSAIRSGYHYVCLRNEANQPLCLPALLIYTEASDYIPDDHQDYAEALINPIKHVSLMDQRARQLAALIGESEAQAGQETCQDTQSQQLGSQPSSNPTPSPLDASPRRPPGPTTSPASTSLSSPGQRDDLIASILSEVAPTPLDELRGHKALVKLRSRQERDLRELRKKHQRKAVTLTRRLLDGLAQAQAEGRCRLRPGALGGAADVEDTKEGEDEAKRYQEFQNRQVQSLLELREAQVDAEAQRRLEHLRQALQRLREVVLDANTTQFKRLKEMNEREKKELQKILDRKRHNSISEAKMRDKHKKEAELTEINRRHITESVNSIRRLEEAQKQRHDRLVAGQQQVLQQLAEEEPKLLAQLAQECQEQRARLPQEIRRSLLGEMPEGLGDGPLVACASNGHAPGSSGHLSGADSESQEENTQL
Sequence of 72 kDa type IV collagenase (P08253 whole entry): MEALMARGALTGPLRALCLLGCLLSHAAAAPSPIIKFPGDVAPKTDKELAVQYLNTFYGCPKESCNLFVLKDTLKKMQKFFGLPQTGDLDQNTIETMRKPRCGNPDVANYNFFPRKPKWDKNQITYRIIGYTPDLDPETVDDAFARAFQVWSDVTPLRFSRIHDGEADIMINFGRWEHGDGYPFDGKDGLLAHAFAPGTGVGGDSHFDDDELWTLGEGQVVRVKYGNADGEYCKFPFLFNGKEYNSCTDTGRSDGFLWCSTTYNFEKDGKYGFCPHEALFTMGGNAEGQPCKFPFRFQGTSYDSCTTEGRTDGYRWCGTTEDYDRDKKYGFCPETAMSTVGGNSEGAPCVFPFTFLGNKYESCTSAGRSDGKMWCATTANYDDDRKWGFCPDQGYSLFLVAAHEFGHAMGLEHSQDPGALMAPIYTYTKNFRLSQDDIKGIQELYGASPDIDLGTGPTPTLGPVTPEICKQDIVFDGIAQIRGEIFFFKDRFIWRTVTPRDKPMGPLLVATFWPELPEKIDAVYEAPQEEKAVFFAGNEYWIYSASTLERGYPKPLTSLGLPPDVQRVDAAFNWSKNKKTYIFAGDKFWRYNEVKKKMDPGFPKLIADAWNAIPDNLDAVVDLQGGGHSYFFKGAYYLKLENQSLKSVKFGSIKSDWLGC
Sequence of Endoplasmic reticulum aminopeptidase 1 (Q9NZ08 whole entry): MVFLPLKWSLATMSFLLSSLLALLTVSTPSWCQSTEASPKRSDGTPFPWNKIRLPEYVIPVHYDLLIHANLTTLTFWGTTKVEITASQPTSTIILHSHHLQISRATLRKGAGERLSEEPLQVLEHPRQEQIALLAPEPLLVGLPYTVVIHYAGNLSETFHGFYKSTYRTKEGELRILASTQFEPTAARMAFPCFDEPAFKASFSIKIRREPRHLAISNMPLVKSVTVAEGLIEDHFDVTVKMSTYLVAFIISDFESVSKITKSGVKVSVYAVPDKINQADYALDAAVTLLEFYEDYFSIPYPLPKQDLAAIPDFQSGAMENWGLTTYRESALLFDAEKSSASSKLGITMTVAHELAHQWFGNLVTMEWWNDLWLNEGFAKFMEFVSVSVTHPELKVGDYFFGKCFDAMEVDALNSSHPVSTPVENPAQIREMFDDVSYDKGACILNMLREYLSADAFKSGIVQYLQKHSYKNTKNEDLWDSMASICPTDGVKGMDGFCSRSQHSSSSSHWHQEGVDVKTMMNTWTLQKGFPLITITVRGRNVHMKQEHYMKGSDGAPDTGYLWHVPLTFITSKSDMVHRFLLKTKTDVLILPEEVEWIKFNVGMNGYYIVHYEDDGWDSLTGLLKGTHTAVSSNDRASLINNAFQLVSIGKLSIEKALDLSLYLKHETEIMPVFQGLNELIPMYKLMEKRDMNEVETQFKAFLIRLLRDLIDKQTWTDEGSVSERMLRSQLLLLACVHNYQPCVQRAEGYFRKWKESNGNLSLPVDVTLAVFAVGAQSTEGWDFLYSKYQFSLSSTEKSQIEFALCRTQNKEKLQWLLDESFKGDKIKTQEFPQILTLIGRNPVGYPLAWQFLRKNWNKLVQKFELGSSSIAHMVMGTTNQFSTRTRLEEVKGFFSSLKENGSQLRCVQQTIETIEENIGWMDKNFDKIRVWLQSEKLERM
Sequence of Disintegrin and metalloproteinase domain-containing protein 17 (P78536 whole entry, the tested form may be a part): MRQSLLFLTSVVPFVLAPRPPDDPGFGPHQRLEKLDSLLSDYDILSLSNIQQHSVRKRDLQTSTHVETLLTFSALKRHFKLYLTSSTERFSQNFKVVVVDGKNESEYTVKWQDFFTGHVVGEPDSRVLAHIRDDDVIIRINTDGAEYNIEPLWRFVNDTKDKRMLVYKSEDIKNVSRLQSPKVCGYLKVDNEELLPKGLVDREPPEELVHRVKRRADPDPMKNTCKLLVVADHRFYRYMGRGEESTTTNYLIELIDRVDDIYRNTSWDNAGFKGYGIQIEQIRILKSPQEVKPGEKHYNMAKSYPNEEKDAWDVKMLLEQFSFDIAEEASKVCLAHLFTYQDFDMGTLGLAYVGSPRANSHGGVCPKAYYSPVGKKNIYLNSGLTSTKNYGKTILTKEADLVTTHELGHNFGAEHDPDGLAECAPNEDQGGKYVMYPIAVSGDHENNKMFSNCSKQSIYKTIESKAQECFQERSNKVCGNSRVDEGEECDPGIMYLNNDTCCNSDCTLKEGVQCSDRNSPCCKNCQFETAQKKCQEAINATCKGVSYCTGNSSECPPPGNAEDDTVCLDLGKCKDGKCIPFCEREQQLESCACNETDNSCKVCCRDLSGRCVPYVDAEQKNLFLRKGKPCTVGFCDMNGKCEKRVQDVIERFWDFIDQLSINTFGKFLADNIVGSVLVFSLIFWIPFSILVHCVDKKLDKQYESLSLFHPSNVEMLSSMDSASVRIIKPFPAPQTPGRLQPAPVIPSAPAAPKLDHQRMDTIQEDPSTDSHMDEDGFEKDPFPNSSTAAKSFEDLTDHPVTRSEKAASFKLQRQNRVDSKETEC
Sequence of Albumin (P02769 whole entry): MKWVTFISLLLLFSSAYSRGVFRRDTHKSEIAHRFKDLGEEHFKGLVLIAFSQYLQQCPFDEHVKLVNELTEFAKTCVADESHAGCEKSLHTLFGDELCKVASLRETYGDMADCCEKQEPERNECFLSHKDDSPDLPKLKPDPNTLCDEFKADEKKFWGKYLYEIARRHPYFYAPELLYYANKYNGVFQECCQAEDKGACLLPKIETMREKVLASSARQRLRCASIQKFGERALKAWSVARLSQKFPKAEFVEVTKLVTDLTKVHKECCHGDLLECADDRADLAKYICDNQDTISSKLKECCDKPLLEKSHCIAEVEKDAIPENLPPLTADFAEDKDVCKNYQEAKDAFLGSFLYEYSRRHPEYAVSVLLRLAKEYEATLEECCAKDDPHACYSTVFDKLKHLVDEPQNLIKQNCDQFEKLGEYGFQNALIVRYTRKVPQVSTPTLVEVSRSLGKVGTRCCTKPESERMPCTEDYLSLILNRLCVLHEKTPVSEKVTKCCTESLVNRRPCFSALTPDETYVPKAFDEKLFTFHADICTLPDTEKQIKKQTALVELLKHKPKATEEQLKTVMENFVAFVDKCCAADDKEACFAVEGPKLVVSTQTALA

Turning to `Cc1cc(=O)oc2c(CN3CCCCC3)c(O)ccc12`, in [1], the AC50 was 5.18 µM (active).

On to `CC[n+]1c(/C=C/N(C)c2ccccc2)sc2ccc(Cl)cc21`, for which the AC50 in test [2] was 9.07 µM (active); on Cytochrome P450 3A4 it was 17.8 µM (inconclusive). Moreover, the IC50 in [3] is > 80 µM (inactive).

On to `O=C(Nc1ccc(-c2ccccc2)cc1)NC1CCCC1`, for which, in test [4], the AC50 was 68 µM (active).

On to `O=C(Nc1cc(N2CCCCC2)ncn1)c1ccc(Br)o1`, for which the IC50 at Protein Wnt-3a was > 21.8 µM (inactive).

Regarding `CCOC(=O)N1CCC(N2CCCC(C(=O)c3ccccc3OC)C2)CC1` (stereo unspecified), the EC50 is 92.5 µM (inactive) at Mu-type opioid receptor and 41.2 µM (inactive) in test [5].

As for `CCCN(CC(=O)Nc1ccccc1C)C(=O)C1CCN(S(=O)(=O)c2ccc(C)c(C)c2)CC1`, the AC50 in the test on Vero was 13.2 µM (active).

As for `CC(C(=O)Nc1cc(Cl)ccn1)N(c1ccccc1Cl)S(C)(=O)=O` (stereo unspecified), the EC50 in test [6] is 10 µM (inconclusive).

Regarding `O=C(Cc1ccncc1)N1CCCCN2[C@@H](CO)[C@H](c3ccc(C#Cc4ccccc4F)cc3)[C@@H]2C1`, the AC50 in test [7] is 13.1 µM (active).

Regarding `COc1cc2c(cc1OC)C(=O)N1[C@H]3c4cc(Cl)ccc4OC[C@@H]3[C@H](c3ccccc3)[C@]1(C)C(=O)N2`, the values for the AC50 in test [8], in [9] and in [10] were 8.86 µM (active), 53.4 µM (active) and 21 µM (active), respectively. Moreover, the IC50 in test [11] and in test [12] was > 69.5 µM (inactive) in each case.

Take `Cc1ccc(/C=C2\SC(=S)N(CCCC(=O)NNC(=O)c3ccccc3O)C2=O)cc1`: the IC50 in test [13] was > 80 µM (inactive); in [14], 28.3 µM (active); in test [15] it was > 100 µM (inactive); at Prothrombin, 32.8 µM (active); on Albumin, > 94.1 µM (inactive).

Take `CCOC(=O)/C(C#N)=C1/C=CN(C)C=N1`: the IC50 in test [16] and in test [17] was > 123 µM (inactive) throughout.

As to `Cc1cc2c(C)cc(=O)oc2c2c1NCCC2`, the EC50 in test [18] is > 50 µM (not active). The AC50 in “cells [19]” and in the test “cells [20]” was > 52 µM (inactive) each time.
